In patent US20240317741A1, “NAPHTHYRIDINE DERIVATIVE AS ATR INHIBITOR AND METHOD FOR PREPARING SAME” (WIGEN BIOMEDICINE TECHNOLOGY (SHANGHAI) CO., LTD., priority 2021, published 2024):

What was measured:
MIA PaCa-2 cells [1] = assay: In-vitro anti-proliferative activity against MIA PaCa-2 cells; format: cell-based; settings: 72 h after dosing, intracellular ATP content
Procedure: (§1) MIA PaCa-2 cells were seeded on a 384-well plate at 3000 cells/well. After overnight adherence culture, DMSO or the compounds serially diluted 1:5 from 5 μM were added. […] The inhibition percentage of viable cells by the compounds was calculated by comparing with the DMSO group, and the IC50 value was calculated.

MIA PaCa-2 cells [2] = assay: In-vitro anti-proliferative activity in combination with gemcitabine against MIA PaCa-2 cells; format: cell-based; settings: in combination with 20 nM gemcitabine, 72 h after dosing
Procedure: as §1, with “cells/well, and 20 nM gemcitabine was added.” for “cells/well.”, “100 nM” for “5 μM”

[3] = Liver microsomal stability (human); format: in vitro ADME; settings: human liver microsomes, 1 μM compound, NADPH regeneration system, 37° C.
Procedure: (§2) After 1 μM compound was incubated with 500 µg/mL of human or mouse liver microsomes and a NADPH regeneration system at 37° C. for different times, respectively, LC-MS-MS was used to analyze the remaining amount of the compound and calculate T1/2.

[4] = Liver microsomal stability (mouse); format: in vitro ADME; settings: mouse liver microsomes, 1 μM compound, NADPH regeneration system, 37° C.
Procedure: as §2

[5] = In vivo pharmacokinetic experiment in mice; parameters: species or system CD-1 female mice
Procedure: CD-1 female mice aged 7 to 10 weeks were intravenously administered and orally administered at a dose of 2 mg/kg and 10 mg/kg, respectively. The mice were fasted for at least 12 h before the administration and given food 4 h after the administration, and they were given ad libitum access to water during the experiment.
On the day of the experiment, animals in the intravenous group were administered the corresponding compound by single injection via the tail vein at an administration volume of 10 mL/kg, and animals in the oral group were administered the corresponding compound by single intragastric injection at an administration volume of 10 mL/kg. The animals were weighed before administration, and the administration volume was calculated according to the body weight. The sample collection time was 0.083 h, 0.167 h, 0.5 h, 1 h, 2 h, 4 h, 8 h and 24 h. About 200 μL of whole blood was collected through the orbital venous plexus at each time point and used to prepare plasma for concentration determination by high performance liquid chromatography-tandem mass spectrometry (LC-MS/MS). The plasma concentrations were processed using a non-compartmental model of Winnolin pharmacokinetic software, and the pharmacokinetic parameters were calculated using a linear-log trapezoidal method.

[6] = Pharmacokinetic evaluation in rats; format: in vivo, SD female rats
Procedure: SPF-grade SD female rats aged 7 to 10 weeks were intravenously administered and orally administered at a dose of 1 mg/kg and 10 mg/kg, respectively. The rats were fasted for at least 12 h before the administration and given food 4 h after the administration, and they were given ad libitum access to water during the experiment.
On the day of the experiment, animals in the intravenous group were administered the corresponding compound by single injection via the tail vein at an administration volume of 2 mL/kg, and animals in the oral group were administered the corresponding compound by single intragastric injection at an administration volume of 10 mL/kg. The animals were weighed before administration, and the administration volume was calculated according to the body weight. The sample collection time was 0.083 h (only intravenous group), 0.125 h (only oral group), 0.25 h, 0.5 h, 1 h, 2 h, 4 h, 6 h, 8 h and 24 h. About 200 μL of whole blood (EDTA-K2 anticoagulated) was collected via the jugular vein or other suitable vein at each time point and used to prepare plasma for concentration determination by high performance liquid chromatography-tandem mass spectrometry (LC-MS/MS). All animals were suffocated by CO2 after the PK samples were collected at the last time point. The plasma concentrations were processed using a non-compartmental model of Winnolin™ version 8.2 (Pharsight, mountain View, CA) pharmacokinetic software, and the pharmacokinetic parameters were calculated using a linear-log trapezoidal method.

[7] = test system: Human colon cancer LOVO cells; assay: In vivo efficacy in LoVo model; parameters: species or system nude mouse; settings: LoVo model in nude mice, 20 mpk BID PO, days 1-3, 8-10, 15-17 and day 21
Procedure: After being subcultured, the cells were collected when they reached the desired amount. 1×10^7 LOVO cells were injected into the left dorsal side of each nude mouse, and the animals were randomly grouped for administration after tumors grew to 100-200 mm^3. The groups were as follows: a solvent control group of 8 mice and a compound group of 8 mice. The compounds were administered orally 3 days a week and interrupted for 4 days, for 21 consecutive days. The vehicle was a 0.5% MC suspension containing 1% tween-80. On Tuesday and Thursday each week, tumor volumes and body weight of the mice were measured, and the nude mice were sacrificed on day 21 after the administration. […] The toxicity of the compounds was evaluated according to the body weight of the mice.

[8] = test system: Human colon cancer HT29 cells; assay: In vivo efficacy in HT-29 model, alone and with gemcitabine; parameters: species or system nude mouse; settings: HT-29 model in nude mice, compound 20 mpk BID PO 3 on/4 off + GMC 15 mpk QW IP; day 21
Procedure: After being subcultured, the cells were collected when they reached the desired amount. 1×10^7 HT29 cells were injected into the left dorsal side of each nude mouse, and the animals were randomly grouped for administration after tumors grew to 100-200 mm^3. The groups were as follows: a solvent control group of 6 mice, a single drug group of 15 mg/kg gemcitabine (GMC), and a combination group of 15 mg/kg gemcitabine and a compound. Gemcitabine was administered intraperitoneally with PBS as a vehicle once a week. The compounds were administered 3 days a week and interrupted for 4 days (3 on/4 off), for 21 consecutive days, and the vehicle was a 0.5% MC suspension containing 1% tween-80. On Tuesday and Thursday each week, tumor volumes and body weight of the mice were measured, and the nude mice were sacrificed on day 21 after the administration. […] The toxicity of the compounds was evaluated according to the body weight of the mice.

With “(R)-1-(2-(3-methylmorpholino)-8-(1H-pyrazol-5-yl)-1,7-naphthyridin-4-ylmethyl)cyclohexane-1-carbonitrile [Compound 25]” the IC50 (MIA PaCa-2 cells [1]) was under 1000 nM, the IC50 (MIA PaCa-2 cells [2]) was 0.257 nM and the “T1/2 (min) Human” value [3] was 7.90 min. The “T1/2 (min) Mouse” value [4] was 2.90 min, the AUC0-last ([5]; Injection (2 mg/kg)) was 203.21 ng·h/mL and the Cl ([5]; Injection (2 mg/kg)) was 82.02 mL/min/kg. It also gave a T1/2 ([5]; Injection (2 mg/kg)) of 19.8 min, a Vdss ([5]; Injection (2 mg/kg)) of 1.84 L/kg and an AUC0-last ([5]; Oral administration (10 mg/kg)) of 1103.1 ng·h/mL. The Cmax ([5]; Oral administration (10 mg/kg)) was 455 ng/mL, the F % ([5]; Oral administration (10 mg/kg)) was 54.3% and the T1/2 ([5]; Oral administration (10 mg/kg)) was 53.4 min. For the same substance, the Tmax ([5]; Oral administration (10 mg/kg)) was 60 min, the AUC0-last ([6]; Injection (1 mg/kg)) was 269.92 ng·h/mL and the Cl ([6]; Injection (1 mg/kg)) was 61.75 mL/min/kg. It also gave a T1/2 ([6]; Injection (1 mg/kg)) of 39 min, a Vdss ([6]; Injection (1 mg/kg)) of 2.14 L/kg and an AUC0-last ([6]; Oral administration (10 mg/kg)) of 1309.43 ng·h/mL. It also gave a Cmax ([6]; Oral administration (10 mg/kg)) of 396.33 ng/mL, a F % ([6]; Oral administration (10 mg/kg)) of 48.5% and a T1/2 ([6]; Oral administration (10 mg/kg)) of 30 min. The Tmax ([6]; Oral administration (10 mg/kg)) was 54 min, the “TGI(%)” value [7] was 84.0% and the “TGI(%)” value [8] was 86.1%.
